Test [1] concerns the target T1, Human N-terminal recombinant Hsp90 protein (region of amino acids 9 to 236) (Homo sapiens, UniProt P07900).
T1 construct: Human N-terminal recombinant Hsp90 protein (region of amino acids 9 to 236); made in house
In words: Hsp90 protein binding assay (competition with biotinylated Radicicol, time-resolved fluorescence). The note with it: immobilized Hsp90, biotinylated Radicicol 0.1 μmol/L, 24° C.; read-out: concentration inhibiting the binding of biotinylated Radicicol to the Hsp90 protein by 50% or more. On the procedure:
Hsp90 Protein Binding Assay
Human N-terminal recombinant Hsp90 protein (region of amino acids 9 to 236) prepared according to the method described in “Cell”, 1997, Vol. 89, p. 239-250 was diluted to 1 μg/mL with Tris-buffered saline (TBS, pH 7.5) and added to each well of a 96-well ELISA assay plate (Greiner) in an amount of 70 μL/well. The plate was incubated overnight at 4° C. to obtain the solid phase.
The supernatant was removed, and Tris-buffered saline containing 1% bovine serum albumin (BSA) was added in an amount of 350 μL/well for blocking.
After the blocking solution was removed, each resulting solid phase was washed by the addition of Tris-buffered saline containing 0.05% Tween 20 (TBST) in an amount of 350 μL/well. This washing procedure was repeated three times. […]
Enhancement solution (Wallac Oy) was added thereto in an amount of 100 μL/well and color developing reaction was carried out at room temperature for 5 minutes, followed by measurement of time-resolved fluorescence (excitation wavelength: 340 nm, measurement wavelength: 615 nm) using Multilabel Counter (ARVO 1420, Wallac Oy).
The binding rate in each well treated the test compound was calculated from the time-resolved fluorescence measured for each well based on the time-resolved fluorescence measured with the positive control taken as 100% binding rate and that with the negative control taken as 0% binding rate.

Test [2] deals with human chronic myelocytic leukemia K562 cells. Put plainly: Growth inhibition test on human chronic myelocytic leukemia K562 cells (WST-1). The class given is cell-based. The note with it: 72 hours, read-out: 50% growth inhibitory concentration (GI50). On the procedure:
Growth Inhibition Test on Human Chronic Myelocytic Leukemia K562 Cells
First, 1,500 cells of human chronic myelocytic leukemia K562 were inoculated into each well of a 96-well microplate (manufactured by Nunc Corp.), and using RPMI1640 medium containing 10% fetal calf serum (FCS), preculturing was performed in a 5% carbon dioxide incubator at 37° C. for 5 hours. A DMSO solution of each test compound prepared in a concentration of 10 mmol/L was stepwise diluted with the culture medium and added thereto in a total amount of 100 μL/well. The resulting wells were further cultured in the 5% carbon dioxide incubator at 37° C. for 72 hours. […] Using a microplate spectrophotometer (SpectraMax 340PC384; manufactured by Molecular Devices), the absorbance of each well was measured at 450 nm and 655 nm. […] The value obtained by subtracting the absorbance at 655 nm from the absorbance at 450 nm (absorbance difference) was calculated for each well. The absorbance difference obtained from cells untreated with any of the test compounds was designated as 100%. The absorbance difference obtained from cells treated with the compounds at the test concentrations was compared. […]

Our source for the IC50 and GI50 values is patent publication US7776849B2, “Benzenoid ansamycin derivative” (Kyowa Hakko Kirin Co., Ltd., priority 2005, dated 2010).

Bounds are passed on as bounds.

On to `COC1C=CC=C(C)C(=O)Nc2cccc(c2O)C(OC)C(C)CC(OC)C(OC)C(C)C=C(C)C1OC(N)=O` (stereo not drawn) [Compound 2], for which, in test [1], the IC50 was at most 10 µM. In addition, the GI50 in test [2] was at most 10 µM. For `COC1/C=C\C=C(/C)C(=O)Nc2cc(O)cc(c2O)C(OC)C(C)CC(OC)C(OC)C(C)/C=C(\C)C1OC(N)=O` (stereo not drawn) [Compound 1], the IC50 in test [1] is at most 10 µM.
